Reference: ChEMBL document CHEMBL1201862, “PubChem BioAssay data set” (2004)
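Step 1: Grow cells in 96-well plates. Step 2: Expose to compound for 48 hours at 5 concentrations. Step 3: Interpolate endpoints linearly; if unreached, use highest concentration. Here, GI50 denotes the concentration required for 50% inhibition of growth.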 Activity calls are given as the source filed them. No stated cut-off is given here; in the data, active = GI50 up to about 1.1 µM and inactive = higher.

Key:
Experiment in all cases: NCI tumour cell line growth inhibition, 48 h
A549 = tested on: A549
SNB-75 = tested on: SNB-75
SR = tested on: SR
NCI/ADR-RES = tested on: NCI/ADR-RES
MOLT-4 = tested on: MOLT-4
TK-10 = tested on: TK-10
SF-539 = tested on: SF-539
BT-549 = tested on: BT-549
SK-MEL-28 = tested on: SK-MEL-28
HOP-92 = tested on: HOP-92
SK-MEL-2 = tested on: SK-MEL-2
RXF 393 = tested on: RXF 393
786-0 = tested on: 786-0
SW-620 = tested on: SW-620
EKVX = tested on: EKVX
SN12C = tested on: SN12C
HCC 2998 = tested on: HCC 2998
HOP-62 = tested on: HOP-62
SK-OV-3 = tested on: SK-OV-3

Measured: GI50

COC1(C)CP(=O)(OC(C)C)CC(C)=C1Cl (stereo unspecified)
inactive: A549 17.1 µM | SNB-75 46.9 µM | SR 7.19 µM | NCI/ADR-RES 17.8 µM | MOLT-4 22.2 µM | TK-10 15.9 µM | SF-539 10.7 µM | BT-549 12.7 µM | SK-MEL-28 21.7 µM | HOP-92 11.2 µM | SK-MEL-2 6.41 µM | RXF 393 21.4 µM | 786-0 19 µM | SW-620 14.4 µM | EKVX 14.6 µM | SN12C 15.2 µM | HCC 2998 27 µM | HOP-62 17.9 µM | SK-OV-3 49.2 µM

CCCCC1(N=[N+]=[N-])C(=O)C2C=CC=C3c4ccccc4N(C1=O)C32 (stereo unspecified)
inactive: A549 19.5 µM | SNB-75 11.6 µM | SR > 10 µM | NCI/ADR-RES 17.7 µM | MOLT-4 15.3 µM | TK-10 16.4 µM | SF-539 20 µM | BT-549 24.5 µM | SK-MEL-28 78.2 µM | HOP-92 > 10 µM | SK-MEL-2 11 µM | RXF 393 13.7 µM | 786-0 22 µM | SW-620 20.2 µM | EKVX 17.8 µM | SN12C 30.1 µM | HCC 2998 15.6 µM | HOP-62 27.1 µM | SK-OV-3 25.8 µM

COc1ccc2oc(=O)c(-c3nc4ccccc4s3)cc2c1
inactive: A549 19.9 µM | SNB-75 8.65 µM | SR 22 µM | NCI/ADR-RES 28.8 µM | MOLT-4 > 77.6 µM | TK-10 32.2 µM | SF-539 3.92 µM | BT-549 > 63.7 µM | SK-MEL-28 > 59.3 µM | HOP-92 19.7 µM | SK-MEL-2 > 100 µM | RXF 393 12.2 µM | 786-0 7.82 µM | SW-620 32.6 µM | EKVX 19.2 µM | SN12C 33.4 µM | HCC 2998 > 100 µM | HOP-62 14.2 µM | SK-OV-3 13.6 µM

CCC(C)C1NC(=O)C(NC(=O)C(CC(C)C)N(C)C(=O)[C@@H]2C=CCN2C(=O)[C@H](C)O)C(C)OC(=O)[C@H](Cc2ccc(OC)cc2)N(C)C(=O)[C@@H]2CCCN2C(=O)[C@H](CC(C)C)NC(=O)C(C)C(=O)[C@H](C(C)C)OC(=O)CC1O (stereo partly specified)
active: A549 0.004 µM | SNB-75 0.00198 µM | SR 0.000216 µM | NCI/ADR-RES 0.0419 µM | MOLT-4 0.00147 µM | TK-10 0.0175 µM | SF-539 0.00139 µM | BT-549 0.00365 µM | SK-MEL-28 0.00138 µM | HOP-92 0.00643 µM | SK-MEL-2 < 0.01 µM | RXF 393 < 0.01 µM | 786-0 0.00185 µM | SW-620 0.00308 µM | EKVX < 0.01 µM | SN12C 0.00279 µM | HCC 2998 0.00306 µM | HOP-62 0.00303 µM | SK-OV-3 0.00239 µM

O=c1c2ccccc2[nH]n1Cc1ccccc1
inactive: A549 > 100 µM | SNB-75 > 100 µM | SR > 100 µM | NCI/ADR-RES > 100 µM | MOLT-4 > 100 µM | TK-10 > 100 µM | SF-539 > 100 µM | BT-549 > 100 µM | SK-MEL-28 > 100 µM | HOP-92 > 100 µM | SK-MEL-2 > 100 µM | RXF 393 > 100 µM | 786-0 > 100 µM | SW-620 > 100 µM | EKVX > 100 µM | SN12C > 100 µM | HCC 2998 > 100 µM | HOP-62 > 100 µM | SK-OV-3 > 100 µM

NC(=O)NC(=O)c1cccc(NC(=O)CF)c1
inactive: A549 > 100 µM | SNB-75 > 100 µM | SR > 100 µM | NCI/ADR-RES > 100 µM | MOLT-4 > 100 µM | TK-10 > 100 µM | SF-539 > 100 µM | BT-549 > 100 µM | SK-MEL-28 > 100 µM | HOP-92 > 100 µM | SK-MEL-2 > 100 µM | RXF 393 > 100 µM | 786-0 > 100 µM | SW-620 > 100 µM | EKVX > 100 µM | SN12C > 100 µM | HCC 2998 > 100 µM | HOP-62 > 100 µM | SK-OV-3 > 100 µM

CC(=O)NC1C(OCc2ccccc2)OC(CO)C(O)C1OCC(=O)N[C@@H](C)C(=O)N[C@H](CCC(=O)NCCCNc1ccc([N+](=O)[O-])c2[nH]c3ccccc3c(=O)c12)C(N)=O (stereo partly specified)
inactive: A549 > 100 µM | SNB-75 46.6 µM | SR > 100 µM | NCI/ADR-RES > 100 µM | TK-10 41.7 µM | SF-539 53.2 µM | BT-549 38.4 µM | SK-MEL-28 > 100 µM | HOP-92 > 100 µM | SK-MEL-2 > 100 µM | RXF 393 63.5 µM | 786-0 34.2 µM | SW-620 > 100 µM | EKVX 43 µM | SN12C > 100 µM | HCC 2998 49.3 µM | HOP-62 65 µM | SK-OV-3 > 100 µM

COc1cc(O)c2c(=O)cc(C3(OC(C)=O)C=CC(OC4OC(CO)C(O)C(O)C4O)C=C3)oc2c1 (stereo unspecified)
inactive: A549 > 100 µM | SNB-75 > 100 µM | SR > 100 µM | NCI/ADR-RES > 100 µM | MOLT-4 > 100 µM | TK-10 > 100 µM | SF-539 > 100 µM | BT-549 > 100 µM | SK-MEL-28 > 100 µM | HOP-92 > 100 µM | SK-MEL-2 > 100 µM | RXF 393 > 100 µM | 786-0 > 100 µM | SW-620 > 100 µM | EKVX > 100 µM | SN12C > 100 µM | HCC 2998 > 100 µM | HOP-62 > 100 µM | SK-OV-3 > 100 µM

CCOC(=O)c1nc2c(nc1C(=O)OCC)C(=O)c1ccccc1C2=O
active: A549 0.594 µM | SNB-75 0.479 µM | SR 0.263 µM | SF-539 0.473 µM | BT-549 0.471 µM | SK-MEL-28 1.03 µM | SK-MEL-2 0.394 µM | RXF 393 0.649 µM | 786-0 0.839 µM | SW-620 0.881 µM | SN12C 0.201 µM | HOP-62 0.618 µM
inactive: NCI/ADR-RES 1.17 µM | MOLT-4 1.71 µM | TK-10 2.75 µM | HOP-92 5.36 µM | EKVX 1.38 µM | HCC 2998 1.35 µM | SK-OV-3 1.59 µM

CCCCC(C(=O)NCCNC(=O)CCC(=O)N(C)O)C(=O)NCCNC(=O)CCC(=O)N(C)O
inactive: A549 > 100 µM | SNB-75 > 100 µM | SR > 100 µM | NCI/ADR-RES > 100 µM | MOLT-4 > 100 µM | TK-10 > 100 µM | SF-539 > 100 µM | BT-549 > 100 µM | SK-MEL-28 > 100 µM | HOP-92 > 100 µM | SK-MEL-2 > 100 µM | RXF 393 > 100 µM | 786-0 > 100 µM | SW-620 > 100 µM | EKVX > 100 µM | SN12C > 100 µM | HCC 2998 > 100 µM | HOP-62 > 100 µM | SK-OV-3 > 100 µM

Cn1c2ccccc2c2c3c(c4c5ccccc5n(C5OC(CO)C(O)C(O)C5O)c4c21)C(=O)OC3=O (stereo unspecified)
inactive: A549 > 100 µM | SNB-75 87.3 µM | SR > 100 µM | NCI/ADR-RES > 100 µM | MOLT-4 > 100 µM | TK-10 > 100 µM | SF-539 > 100 µM | BT-549 > 100 µM | SK-MEL-28 > 100 µM | HOP-92 > 100 µM | SK-MEL-2 > 100 µM | RXF 393 > 100 µM | 786-0 > 100 µM | SW-620 > 100 µM | EKVX > 100 µM | SN12C > 100 µM | HCC 2998 > 100 µM | HOP-62 > 100 µM | SK-OV-3 > 100 µM

OC(c1ccc(C(F)(F)F)cc1)C(F)(F)c1nc2ccccc2o1 (stereo unspecified)
inactive: SNB-75 > 100 µM | SR > 100 µM | NCI/ADR-RES > 100 µM | MOLT-4 > 100 µM | TK-10 > 100 µM | SF-539 > 100 µM | BT-549 > 100 µM | SK-MEL-28 > 100 µM | HOP-92 > 100 µM | SK-MEL-2 > 100 µM | RXF 393 > 100 µM | 786-0 > 100 µM | SW-620 > 100 µM | EKVX > 100 µM | HCC 2998 > 100 µM | HOP-62 > 100 µM | SK-OV-3 > 100 µM

C=C1C(=O)OC2C3OC(C)(CCC(O)C3COC(C)=O)CC(OC(=O)/C(=C/C)COC(C)=O)C12 (stereo unspecified)
inactive: A549 7.33 µM | SNB-75 4.66 µM | SF-539 1.58 µM | SK-MEL-2 1.13 µM | HCC 2998 1.3 µM | HOP-62 3.08 µM | SK-OV-3 6.64 µM
active: SR 0.196 µM | NCI/ADR-RES 0.59 µM | MOLT-4 0.0783 µM | TK-10 0.165 µM | BT-549 0.18 µM | SK-MEL-28 0.116 µM | HOP-92 0.159 µM | RXF 393 0.223 µM | 786-0 0.138 µM | SW-620 0.0807 µM | EKVX 0.424 µM | SN12C 0.738 µM

Oc1ccc(Cl)cc1C1=NC(NCNC2=NC(c3ccccc3)CC(c3cc(Cl)ccc3O)=N2)=NC(c2ccccc2)C1 (stereo unspecified)
inactive: A549 > 100 µM | SNB-75 > 100 µM | SR 24.9 µM | NCI/ADR-RES 82.4 µM | TK-10 > 100 µM | SF-539 > 100 µM | BT-549 > 100 µM | SK-MEL-28 > 100 µM | HOP-92 > 100 µM | SK-MEL-2 > 100 µM | RXF 393 37.7 µM | 786-0 > 100 µM | SW-620 > 100 µM | EKVX > 100 µM | HCC 2998 > 100 µM | HOP-62 > 100 µM | SK-OV-3 > 100 µM
